Source: patent US9504685B2, “Method for treating a pulmonary hypertension condition” (Gilead Sciences, Inc., priority 2006, dated 2016)

Test system: subjects with PAH
Test: Example 1 (ARIES-2) placebo-controlled Phase III trial, efficacy
Format: in vivo, human
Method: The primary objective of this study was to determine the effect of ambrisentan on exercise capacity in subjects with PAH. The secondary objectives of this study were to evaluate effects of ambrisentan on other clinical measures of PAH, as well as safety and tolerability of the study drug.
Study drug was provided in round, biconvex, oral tablets that were identical in appearance. Three strengths of active study drug, containing 1 mg, 2.5 mg or 5 mg of ambrisentan, were used in this study. All study drug was packaged in blister cards. Subjects were instructed to take study drug once daily (q.d.) by mouth (p.o.) in the morning, with or without food.
The maximum study duration was up to 14 weeks from the time of initial screening procedures to the final study visit (Week 12). Screening procedures were performed a maximum of 2 weeks prior to the first dose of study drug. The maximum duration of study drug treatment was 12 weeks.
Men and women, 18 years of age or older, with idiopathic PAH, PAH associated with connective tissue disease (CTD), e.g., mixed CTD, CREST syndrome, systemic sclerosis (scleroderma), overlap syndrome or systemic lupus erythematosus, or PAH associated with anorexigen use or HIV infection were enrolled in this study. Subjects were to have a documented mean PAP≧25 mmHg, PVR>3 mmHg/L/min, and PCWP or LVEDP<15 mmHg. Subjects must have been able to walk a distance of at least 150 m but no more than 450 m during 2 consecutive 6MWTs to be eligible for inclusion in the study.
After a 2 week screening period, eligible subjects were stratified based on the underlying etiology of PAH (idiopathic or non-idiopathic) and were randomized to 1 of 3 treatment groups (placebo, 2.5 mg or 5 mg ambrisentan) in a ratio of 1:1:1. One blinded dose reduction was permitted during the 12-week treatment period in the event of study drug intolerance (e.g., 5 mg to 2.5 mg, 2.5 mg to 1 mg, placebo to placebo). Subjects received a daily dose of 1 mg ambrisentan only if they reduced from the 2.5 mg dose group. Subjects were assessed for efficacy and safety at monthly intervals.
Therefore, after a minimum treatment period of 4 weeks, subjects who met 2 or more of the following predefined early escape criteria may have been removed from the study: • (a) a decrease from baseline of at least 20% in 6MWD; • (b) an increase of 1 or more WHO functional class; • (c) worsening right ventricular failure (e.g., as indicated by increased jugular venous pressure, new or worsening hepatomegaly, ascites or peripheral edema); • (d) rapidly progressing cardiogenic, hepatic or renal failure; and/or • (e) refractory systolic hypotension (systolic blood pressure <85 mmHg).
The primary efficacy endpoint was change from baseline in 6MWD evaluated after 12 weeks of treatment compared to placebo.
The secondary efficacy endpoints included: • (a) time to clinical worsening of PAH, as defined by the time from randomization to the first occurrence of death, lung transplantation, hospitalization for PAH, atrial septostomy, study discontinuation due to addition of other PAH therapeutic agents, or study discontinuation due to 2 or more early escape criteria; • (b) change from baseline measured after 12 weeks of treatment compared to placebo in: • (i) WHO functional class; • (ii) SF-36® health survey physical functioning scale; • (iii) BDI immediately following exercise; and/or • (iv) an assessment of the safety and tolerability of the study drug; and • (c) change from baseline measured after 12 weeks of treatment compared to placebo in plasma levels of ET-1, cTnT and BNP. Safety Assessments
For the ITT population, subjects were considered as belonging to their randomized treatment group, regardless of the actual treatment received.
The primary efficacy endpoint was the change from baseline in 6MWD evaluated after 12 weeks of treatment compared to placebo, where the last observation was carried forward. […]

[1] = 5 mg once daily, baseline to Week 12
[2] = combined 2.5 mg and 5 mg groups, 12 weeks
[3] = combined 2.5 mg and 5 mg groups, ITT population
[4] = combined 2.5 mg and 5 mg groups, baseline to Week 12

For `COC(c1ccccc1)(c1ccccc1)[C@H](Oc1nc(C)cc(C)n1)C(=O)O` [ambrisentan], which “Change in SF-36 Role-physical, mean (SD)” value [1] is on record?
The value was “+7.61 (10.41)”.

What about the “Change in SF-36 Social functioning, mean (SD)” value [1] of the same compound?
Its value is “+4.85 (11.89)”.

And the “Change in SF-36 Vitality, mean (SD)” value [1]?
The value was “+5.21 (8.79)”.

And the “Change in WHO functional class: +1 class” value [1]?
The value was 2 (3.2) subjects (% of ITT population).

And the “Change in WHO functional class: +2 classes” value [1]?
The value was 0 (0.0) subjects (% of ITT population).

What about the “Change in WHO functional class: no change” value [1] of the same compound?
The value was 52 (82.5) subjects (% of ITT population).

And the “Change in WHO functional class: −1 class” value [1]?
Its value is 8 (12.7) subjects (% of ITT population).

And the “Change in WHO functional class: −2 classes” value [1]?
The value was 1 (1.6) subjects (% of ITT population).

What about the “placebo-adjusted 6MWD change from baseline at Week 12” value (from here on “placebo-adjusted 6MWD change”) (South American subgroup, 2.5 mg once daily) of the same compound?
Its value is “+50.5 m”.

What about the “placebo-adjusted 6MWD change” value (South American subgroup, 5 mg once daily) of the same compound?
Its value is “+79.5 m”.

What about the “placebo-adjusted 6MWD change” value (WHO class I/II subgroup, 2.5 mg once daily) of the same compound?
Its value is “+44.1 m”.

What about the “placebo-adjusted 6MWD change” value (WHO class I/II subgroup, 5 mg once daily) of the same compound?
The value was “+67.7 m”.

What about the “placebo-adjusted 6MWD change” value (WHO class III/IV subgroup, 2.5 mg once daily) of the same compound?
Its value is “+17.6 m”.

And the “placebo-adjusted 6MWD change” value (WHO class III/IV subgroup, 5 mg once daily)?
The value was “+51.8 m”.

What about the “placebo-adjusted BDI at Week 12” value (combined 2.5 mg and 5 mg groups) of the same compound?
Its value is −1.1.

What about the “Clinical worsening event: Atrial septostomy” value [2] of the same compound?
Its value is 0 (0.0) subjects (% of ITT population).

What about the “Clinical worsening event: Death” value [2] of the same compound?
The value was 2 (1.6) subjects (% of ITT population).

What about the “Clinical worsening event: Escape criteria” value [2] of the same compound?
Its value is 3 (2.4) subjects (% of ITT population).

What about the “Clinical worsening event: Hospitalization for PAH” value [2] of the same compound?
Its value is 5 (3.9) subjects (% of ITT population).

What about the “Clinical worsening event: Lung transplantation” value [2] of the same compound?
The value was 0 (0.0) subjects (% of ITT population).

And the “Clinical worsening event: Study withdrawal due to addition of PAH treatment” value [2]?
The value was 0 (0.0) subjects (% of ITT population).

And the “Clinical worsening: Total subjects with ≧1 event” value [2]?
Its value is 6 (4.7) subjects (% of ITT population).

And the “Change in 6MWD from baseline to Week 12, mean” value [3]?
The value was “+35.7 meters”.

And the “Week 12 6MWD, mean” value [3]?
The value was 387.0 meters.

What about the “subjects who deteriorated by at least 1 WHO class” value (combined 2.5 mg and 5 mg groups, Week 12) of the same compound?
Its value is 3.9%.

And the “Change in SF-36 Bodily pain, mean (SD)” value [4]?
Its value is “+1.40 (10.96)”.

What about the “Change in SF-36 General health, mean (SD)” value [4] of the same compound?
Its value is “+4.40 (7.40)”.

What about the “Change in SF-36 Mental component summary, mean (SD)” value [4] of the same compound?
Its value is “+5.17 (11.00)”.

What about the “Change in SF-36 Mental health, mean (SD)” value [4] of the same compound?
Its value is “+4.50 (9.88)”.

What about the “Change in SF-36 Physical component summary, mean (SD)” value [4] of the same compound?
The value was “+3.38 (7.69)”.

What about the “Change in SF-36 Role-emotional, mean (SD)” value [4] of the same compound?
The value was “+5.63 (13.86)”.

And the “Change in SF-36 Role-physical, mean (SD)” value [4]?
The value was “+6.74 (11.07)”.

What about the “Change in SF-36 Social functioning, mean (SD)” value [4] of the same compound?
The value was “+4.70 (10.81)”.

And the “Change in SF-36 Vitality, mean (SD)” value [4]?
The value was “+4.64 (8.94)”.

And the “Change in WHO functional class: +1 class” value [4]?
The value was 4 (3.1) subjects (% of ITT population).

What about the “Change in WHO functional class: +2 classes” value [4] of the same compound?
Its value is 1 (0.8) subjects (% of ITT population).

And the “Change in WHO functional class: no change” value [4]?
The value was 103 (81.1) subjects (% of ITT population).

What about the “Change in WHO functional class: −1 class” value [4] of the same compound?
The value was 18 (14.2) subjects (% of ITT population).

And the “Change in WHO functional class: −2 classes” value [4]?
Its value is 1 (0.8) subjects (% of ITT population).

What about the “placebo-adjusted 6MWD change” value (eastern European subgroup, 2.5 mg once daily) of the same compound?
Its value is “+66.1 m”.

And the “placebo-adjusted 6MWD change” value (eastern European subgroup, 5 mg once daily)?
Its value is “+88.0 m”.

And the “placebo-adjusted 6MWD change” value (female subjects, 2.5 mg once daily)?
The value was “+42.5 m”.

What about the “placebo-adjusted 6MWD change” value (female subjects, 5 mg once daily) of the same compound?
Its value is “+75.7 m”.

What about the “placebo-adjusted 6MWD change” value (idiopathic PAH subgroup, 2.5 mg once daily) of the same compound?
Its value is “+56.3 m”.

What about the “placebo-adjusted 6MWD change” value (idiopathic PAH subgroup, 5 mg once daily) of the same compound?
The value was “+75.7 m”.

What about the “placebo-adjusted 6MWD change” value (male subjects, 2.5 mg once daily) of the same compound?
The value was “+6.8 m”.

And the “placebo-adjusted 6MWD change” value (male subjects, 5 mg once daily)?
The value was “+2.7 m”.

And the “placebo-adjusted 6MWD change” value (non-idiopathic PAH subgroup, 2.5 mg once daily)?
Its value is −12.6 m.

What about the “placebo-adjusted 6MWD change” value (non-idiopathic PAH subgroup, 5 mg once daily) of the same compound?
Its value is “+29.5 m”.

What about the “reduction in the probability of clinical worsening (hazard ratio) compared to placebo” value (subjects receiving ambrisentan (combined group), 12 weeks) of the same compound?
Its value is 80%.

What about the “subjects hospitalized for PAH” value (subjects receiving ambrisentan (combined), 12 weeks) of the same compound?
The value was 3.9%.

What about the “placebo-adjusted 6MWD change” value (western European/Israel subgroup, 2.5 mg once daily) of the same compound?
Its value is “+3.0 m”.

What about the “placebo-adjusted 6MWD change” value (western European/Israel subgroup, 5 mg once daily) of the same compound?
Its value is “+39.4 m”.
